Reference: ChEMBL document CHEMBL1649180, “Early postpartum pharmacokinetics of lopinavir initiated intrapartum in Thai women” (Antimicrob Agents Chemother, 2009)
One block for each compound: values may come before it.

What was measured:
[1] = Tmax in HIV-infected Thai pregnant women at 400 mg, po bid initiated intrapartum in combination with 100 mg, po bid ritonavir measured within 72 hrs postpartum; assay type: ADME, organism-based; conditions: female, human, in vivo
[2] = AUC (0 to 12 hrs) in HIV-infected Thai pregnant women at 400 mg, po bid initiated intrapartum in combination with 100 mg, po bid ritonavir measured within 72 hrs postpartum; assay type: ADME, organism-based; set-up: time < 12 hr, dose 400 mg, route oral; conditions: female, human, plasma
[3] = Drug level in HIV-infected Thai pregnant women serum at 400 mg, po bid initiated intrapartum administered for 30 days in combination with 100 mg, po bid ritonavir measured 2 hrs post last dose; assay type: ADME, organism-based; conditions: female, human, read-out: Drug uptake
[4] = tested on: Serum; test: Ratio of drug level in 4 hrs to 30 days post last dose of HIV-infected Thai pregnant women serum at 400 mg, po bid initiated intrapartum in combination with 100 mg, po bid ritonavir; assay type: ADME, organism-based; conditions: human, in vivo
[5] = tested on: Serum; test: Ratio of drug level in 2 hrs to 30 days post last dose of HIV-infected Thai pregnant women serum at 400 mg, po bid initiated intrapartum in combination with 100 mg, po bid ritonavir; assay type: ADME, organism-based; conditions: human, in vivo
[6] = Drug level in HIV-infected Thai pregnant women serum at 400 mg, po bid initiated intrapartum administered for 30 days in combination with 100 mg, po bid ritonavir measured before administering last dose; assay type: ADME, organism-based; conditions: female, human, read-out: Drug uptake
[7] = tested on: Serum; test: Drug level in HIV-infected Thai pregnant women serum before intrapartum initiation of 400 mg, po bid in combination with 100 mg, po bid ritonavir; assay type: ADME, organism-based; conditions: human, in vivo
[8] = Drug level in HIV-infected Thai pregnant women serum at 400 mg, po bid initiated intrapartum in combination with 100 mg, po bid ritonavir measured 4 hrs post last dose; assay type: ADME, organism-based; conditions: female, human, read-out: Drug uptake
[9] = Drug level in HIV-infected Thai pregnant women serum at 400 mg, po bid initiated intrapartum administered for 30 days in combination with 100 mg, po bid ritonavir measured 4 hrs post last dose; assay type: ADME, organism-based; conditions: female, human, read-out: Drug uptake
[10] = Cmax in HIV-infected Thai pregnant women at 400 mg, po bid initiated intrapartum in combination with 100 mg, po bid ritonavir measured within 72 hrs postpartum; assay type: ADME, organism-based; set-up: dose 400 mg, route oral; conditions: female, human, in vivo
[11] = tested on: Serum; test: Ratio of drug level before intrapartum initiation to 30 days pre-last dose of HIV-infected Thai pregnant women serum at 400 mg, po bid in combination with 100 mg, po bid ritonavir; assay type: ADME, organism-based; conditions: human, in vivo, 720 h
[12] = tested on: Homo sapiens; test: Toxicity in HIV-infected Thai pregnant women assessed as adverse effect at 400 mg, po bid initiated intrapartum administered for 30 days in combination with 100 mg, po bid ritonavir; assay type: organism-based; conditions: in vivo, 720 h
[13] = Drug level in HIV-infected Thai pregnant women serum at 400 mg, po bid initiated intrapartum in combination with 100 mg, po bid ritonavir measured 12 hrs post last dose; assay type: ADME, organism-based; conditions: female, human, read-out: Drug uptake
[14] = Drug level in HIV-infected Thai pregnant women serum at 400 mg, po bid initiated intrapartum in combination with 100 mg, po bid ritonavir measured 2 hrs post last dose; assay type: ADME, organism-based; conditions: female, human, read-out: Drug uptake
[15] = Drug level in HIV-infected Thai pregnant women serum at 100 mg, po bid initiated intrapartum in combination with 400 mg, po bid Lopinavir measured 12 hrs post last dose; assay type: ADME, organism-based; conditions: female, human, read-out: Drug uptake
[16] = Drug level in HIV-infected Thai pregnant women serum at 100 mg, po bid initiated intrapartum administered for 30 days in combination with 400 mg, po bid Lopinavir measured before administering last dose; assay type: ADME, organism-based; conditions: female, human, read-out: Drug uptake
[17] = AUC (0 to 12 hrs) in HIV-infected Thai pregnant women at 100 mg, po bid initiated intrapartum in combination with 400 mg, po bid Lopinavir measured within 72 hrs postpartum; assay type: ADME, organism-based; set-up: time < 12 hr, dose 100 mg, route oral; conditions: female, human, plasma
[18] = tested on: Serum; test: Ratio of drug level in 2 hrs to 30 days post last dose of HIV-infected Thai pregnant women serum at 100 mg, po bid initiated intrapartum in combination with 400 mg, po bid Lopinavir; assay type: ADME, organism-based; conditions: human, in vivo
[19] = Cmax in HIV-infected Thai pregnant women at 100 mg, po bid initiated intrapartum in combination with 400 mg, po bid Lopinavir measured within 72 hrs postpartum; assay type: ADME, organism-based; set-up: dose 100 mg, route oral; conditions: female, human, in vivo
[20] = Drug level in HIV-infected Thai pregnant women serum at 100 mg, po bid initiated intrapartum in combination with 400 mg, po bid Lopinavir measured 4 hrs post last dose; assay type: ADME, organism-based; conditions: female, human, read-out: Drug uptake
[21] = tested on: Serum; test: Drug level in HIV-infected Thai pregnant women serum before intrapartum initiation of 100 mg, po bid in combination with 400 mg, po bid Lopinavir; assay type: ADME, organism-based; conditions: human, in vivo
[22] = Drug level in HIV-infected Thai pregnant women serum at 100 mg, po bid initiated intrapartum administered for 30 days in combination with 400 mg, po bid Lopinavir measured 4 hrs post last dose; assay type: ADME, organism-based; conditions: female, human, read-out: Drug uptake
[23] = Drug level in HIV-infected Thai pregnant women serum at 100 mg, po bid initiated intrapartum in combination with 400 mg, po bid Lopinavir measured 2 hrs post last dose; assay type: ADME, organism-based; conditions: female, human, read-out: Drug uptake
[24] = Drug level in HIV-infected Thai pregnant women serum at 100 mg, po bid initiated intrapartum administered for 30 days in combination with 400 mg, po bid Lopinavir measured 2 hrs post last dose; assay type: ADME, organism-based; conditions: female, human, read-out: Drug uptake
[25] = tested on: Serum; test: Ratio of drug level before intrapartum initiation to 30 days pre-last dose of HIV-infected Thai pregnant women serum at 100 mg, po bid in combination with 400 mg, po bid Lopinavir; assay type: ADME, organism-based; conditions: human, in vivo, 720 h
[26] = Tmax in HIV-infected Thai pregnant women at 100 mg, po bid initiated intrapartum in combination with 400 mg, po bid Lopinavir measured within 72 hrs postpartum; assay type: ADME, organism-based; conditions: female, human, in vivo
[27] = tested on: Serum; test: Ratio of drug level in 4 hrs to 30 days post last dose of HIV-infected Thai pregnant women serum at 100 mg, po bid initiated intrapartum in combination with 400 mg, po bid Lopinavir; assay type: ADME, organism-based; conditions: human, in vivo

- Tmax [1]: 3.9 h
- AUC at 12 h [2]: 99700 ng·h/mL
- concentration at 2 h [3]: 11700 ng/mL
- Drug uptake [4]: 0.81
- Drug uptake [5]: 0.85
- concentration at 720 h [6]: 9170 ng/mL
- Drug uptake [7]: 6.08 µg/mL
- concentration at 4 h [8]: 10800 ng/mL
- concentration at 4 h [9]: 13000 ng/mL
- Cmax [10]: 11200 ng/mL
- Drug uptake [11]: 0.66
- concentration at 12 h [13]: 5180 ng/mL
- concentration at 2 h [14]: 10500 ng/mL
SMILES: Cc1cccc(C)c1OCC(=O)N[C@@H](Cc1ccccc1)[C@@H](O)C[C@H](Cc1ccccc1)NC(=O)[C@H](C(C)C)N1CCCNC1=O [LOPINAVIR]
- Activity [12]: Non-toxic

- concentration at 12 h [15]: 100 ng/mL
- concentration at 720 h [16]: 290 ng/mL
- AUC at 12 h [17]: 4270 ng·h/mL
- Drug uptake [18]: 0.76
- Cmax [19]: 600 ng/mL
- concentration at 4 h [20]: 580 ng/mL
- Drug uptake [21]: 0.16 µg/mL
- concentration at 4 h [22]: 810 ng/mL
- concentration at 2 h [23]: 450 ng/mL
- concentration at 2 h [24]: 610 ng/mL
- Drug uptake [25]: 0.54
- Tmax [26]: 3.9 h
- Drug uptake [27]: 0.68
SMILES: CC(C)c1nc(CN(C)C(=O)N[C@H](C(=O)N[C@@H](Cc2ccccc2)C[C@H](O)[C@H](Cc2ccccc2)NC(=O)OCc2cncs2)C(C)C)cs1 [RITONAVIR]
